{"source": "paper PMC6300691", "about": "“Enhancement of Heat Stability and Kinetic Parameters of the Maize Endosperm ADP-Glucose Pyrophosphorylase by Mutagenesis of Amino Acids in the Small Subunit With High B Factors” (Frontiers in Plant Science, 2018)", "experiment_in_all_cases": "Activation constant from initial rates with varied 3-PGA (0-1 mM) at 2 mM ATP and 2 mM G-1-P, pH 7.4, 15 mM MgCl2, fitted to V = Vmin + Vmax*X/(Ka + X).", "assay_type_in_all_cases": "biochemical", "key": {"[1]": {"biological_target": "T1, E123G, R331K, K402R (BT2-BF) (Zea mays, UniProt P55241+Q947C0, E123G/R331K/K402R)", "T1 construct": "BT2-BF with wild type SH2 (SH2-WT/BT2-BF), E. coli, purified", "T1 sequence (Q947C0 1-475 E123G/R331K/K402R)": "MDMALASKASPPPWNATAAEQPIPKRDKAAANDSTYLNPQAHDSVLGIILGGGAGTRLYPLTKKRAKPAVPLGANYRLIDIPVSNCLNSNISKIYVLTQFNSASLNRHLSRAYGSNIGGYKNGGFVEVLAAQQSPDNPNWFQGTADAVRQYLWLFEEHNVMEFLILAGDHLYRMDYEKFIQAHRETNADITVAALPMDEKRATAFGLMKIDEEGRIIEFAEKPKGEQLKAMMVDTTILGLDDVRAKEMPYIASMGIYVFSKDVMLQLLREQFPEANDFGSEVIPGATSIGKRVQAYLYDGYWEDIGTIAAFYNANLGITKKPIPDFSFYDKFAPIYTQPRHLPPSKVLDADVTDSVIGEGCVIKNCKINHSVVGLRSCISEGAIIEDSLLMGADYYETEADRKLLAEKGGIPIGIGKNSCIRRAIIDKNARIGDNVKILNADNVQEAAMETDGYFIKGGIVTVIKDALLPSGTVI", "T1 sequence (P55241 46-516)": "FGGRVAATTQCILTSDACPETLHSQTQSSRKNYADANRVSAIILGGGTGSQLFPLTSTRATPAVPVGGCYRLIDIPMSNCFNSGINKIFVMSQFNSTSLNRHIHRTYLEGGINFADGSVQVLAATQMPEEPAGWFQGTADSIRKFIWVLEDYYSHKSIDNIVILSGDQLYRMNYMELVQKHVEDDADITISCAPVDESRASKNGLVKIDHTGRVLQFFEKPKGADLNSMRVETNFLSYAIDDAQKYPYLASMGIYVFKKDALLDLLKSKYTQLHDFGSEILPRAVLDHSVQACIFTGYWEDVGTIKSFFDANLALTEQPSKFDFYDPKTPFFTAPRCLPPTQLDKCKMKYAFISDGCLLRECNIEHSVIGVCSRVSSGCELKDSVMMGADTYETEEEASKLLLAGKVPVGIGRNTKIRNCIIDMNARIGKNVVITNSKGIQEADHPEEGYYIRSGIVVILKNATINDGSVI", "excerpt": "(§1) All reactions were developed as above."}, "R331P": {"biological_target": "T2, R331P (Zea mays, UniProt P55241+Q947C0, R331P)", "T2 construct": "BT2 variant with wild type SH2, E. coli, purified", "T2 sequence (Q947C0 1-475 R331P, one chain of several)": "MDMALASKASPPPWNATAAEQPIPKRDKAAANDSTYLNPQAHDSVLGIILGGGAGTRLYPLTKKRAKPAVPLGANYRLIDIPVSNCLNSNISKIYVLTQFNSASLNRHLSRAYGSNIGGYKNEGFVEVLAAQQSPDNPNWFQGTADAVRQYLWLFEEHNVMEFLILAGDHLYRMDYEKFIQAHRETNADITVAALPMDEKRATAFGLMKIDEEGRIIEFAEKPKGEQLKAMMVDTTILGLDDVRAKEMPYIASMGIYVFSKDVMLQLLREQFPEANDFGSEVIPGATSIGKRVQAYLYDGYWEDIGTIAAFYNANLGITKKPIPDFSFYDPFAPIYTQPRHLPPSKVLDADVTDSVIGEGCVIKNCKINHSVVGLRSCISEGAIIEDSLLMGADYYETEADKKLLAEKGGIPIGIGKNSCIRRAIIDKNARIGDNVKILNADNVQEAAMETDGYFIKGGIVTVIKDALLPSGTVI", "excerpt": "as §1"}, "SH2-ISM": {"biological_target": "T3, SH2-ISM (Zea mays, UniProt P55241+Q947C0, Q96G/D161G/A443R)", "T3 construct": "SH2-ISM with wild type BT2 (SH2-ISM/BT2-WT), E. coli, purified", "T3 sequence (Q947C0 1-475)": "T1 sequence (Q947C0 1-475 E123G/R331K/K402R) with G123E, K331R, R402K", "T3 sequence (P55241 46-516 Q96G/D161G/A443R)": "T1 sequence (P55241 46-516) with Q51G, D116G, A398R", "excerpt": "as §1"}, "K403E": {"biological_target": "T4, K403E (Zea mays, UniProt P55241+Q947C0, K403E)", "T4 construct": "BT2 variant with wild type SH2, E. coli, purified", "T4 sequence (Q947C0 1-475 K403E, one chain of several)": "as the sequence (Q947C0 1-475 R331P, one chain of several) above, with P331R, K403E counted along it", "excerpt": "as §1"}, "[2]": {"biological_target": "T5, E123G, R331K, K402R, L404H (Zea mays, UniProt P55241+Q947C0, E123G/R331K/K402R/L404H)", "T5 construct": "BT2 quadruple variant with wild type SH2, E. coli, purified", "T5 sequence (Q947C0 1-475 E123G/R331K/K402R/L404H, one chain of several)": "as the sequence (Q947C0 1-475 R331P, one chain of several) above, with E123G, P331K, K402R, L404H counted along it", "excerpt": "as §1"}, "SH2-ISM/BT2-BF": {"biological_target": "T6, SH2-ISM/BT2-BF (Zea mays, UniProt P55241+Q947C0, Q96G/E123G/D161G/R331K/K402R/A443R)", "T6 construct": "SH2-ISM co-expressed with BT2-BF, E. coli, purified", "T6 sequence (Q947C0 1-475 E123G/R331K/K402R)": "T1 sequence (Q947C0 1-475 E123G/R331K/K402R)", "T6 sequence (P55241 46-516 Q96G/D161G/A443R)": "T1 sequence (P55241 46-516) with Q51G, D116G, A398R", "excerpt": "as §1"}, "E123V": {"biological_target": "T7, E123V (Zea mays, UniProt P55241+Q947C0, E123V)", "T7 construct": "BT2 variant with wild type SH2, E. coli, purified", "T7 sequence (Q947C0 entry or part of it E123V, one chain of several)": "as the sequence (Q947C0 1-475 R331P, one chain of several) above, with E123V, P331R counted along it", "excerpt": "as §1"}, "K402R": {"biological_target": "T8, K402R (Zea mays, UniProt P55241+Q947C0, K402R)", "T8 construct": "BT2 variant with wild type SH2, E. coli, purified", "T8 sequence (Q947C0 1-475 K402R, one chain of several)": "as the sequence (Q947C0 1-475 R331P, one chain of several) above, with P331R, K402R counted along it", "excerpt": "as §1"}, "E123G, R331K, L404H": {"biological_target": "T9, E123G, R331K, L404H (Zea mays, UniProt P55241+Q947C0, E123G/R331K/L404H)", "T9 construct": "BT2 variant with wild type SH2, E. coli, purified", "T9 sequence (Q947C0 1-475 E123G/R331K/L404H, one chain of several)": "as the sequence (Q947C0 1-475 R331P, one chain of several) above, with E123G, P331K, L404H counted along it", "excerpt": "as §1"}, "D242H": {"biological_target": "T10, D242H (Zea mays, UniProt P55241+Q947C0, D242H)", "T10 construct": "BT2 variant with wild type SH2, E. coli, purified", "T10 sequence (Q947C0 1-475 D242H, one chain of several)": "as the sequence (Q947C0 1-475 R331P, one chain of several) above, with D242H, P331R counted along it", "excerpt": "as §1"}, "L404E": {"biological_target": "T11, L404E (Zea mays, UniProt P55241+Q947C0, L404E)", "T11 construct": "BT2 variant with wild type SH2, E. coli, purified", "T11 sequence (Q947C0 1-475 L404E, one chain of several)": "as the sequence (Q947C0 1-475 R331P, one chain of several) above, with P331R, L404E counted along it", "excerpt": "as §1"}, "E123Q": {"biological_target": "T12, E123Q (Zea mays, UniProt P55241+Q947C0, E123Q)", "T12 construct": "BT2 variant with wild type SH2, E. coli, purified", "T12 sequence (Q947C0 1-475 E123Q, one chain of several)": "as the sequence (Q947C0 1-475 R331P, one chain of several) above, with E123Q, P331R counted along it", "excerpt": "as §1"}}, "note": "Residue numbers refer to the chain shown, from its start."}
{"smiles": "O=C(O)[C@H](O)COP(=O)(O)O", "note": "[3-PGA, 3-phosphoglycerate (3-phosphoglyceric acid)]", "values": [{"measurement": "3-PGA Ka (activation constant)", "setting": "[1]", "result": "0.060 ± 0.0097"}, {"measurement": "3-PGA Ka (activation constant)", "setting": "R331P", "result": "0.094 ± 0.013"}, {"measurement": "3-PGA Ka (activation constant)", "setting": "SH2-ISM", "result": "0.056 ± 0.008"}, {"measurement": "3-PGA Ka (activation constant)", "setting": "K403E", "result": "0.14 ± 0.015"}, {"measurement": "3-PGA Ka (activation constant)", "setting": "[2]", "result": "0.11 ± 0.017 +"}, {"measurement": "3-PGA Ka (activation constant)", "setting": "SH2-ISM/BT2-BF", "result": "0.23 ± 0.11"}, {"measurement": "3-PGA Ka (activation constant)", "setting": "E123V", "result": "0.10 ± 0.036"}, {"measurement": "3-PGA Ka (activation constant)", "setting": "K402R", "result": "0.077 ± 0.014"}, {"measurement": "3-PGA Ka (activation constant)", "setting": "E123G, R331K, L404H", "result": "0.059 ± 0.11"}, {"measurement": "3-PGA Ka (activation constant)", "setting": "D242H", "result": "0.077 ± 0.0077"}, {"measurement": "3-PGA Ka (activation constant)", "setting": "L404E", "result": "0.15 ± 0.014"}, {"measurement": "3-PGA Ka (activation constant)", "setting": "E123Q", "result": "0.12 ± 0.022"}]}
